The source made the active and inactive calls. No cut-off for these calls is given here.
Columns and labels:
Escherichia coli = test: Antibacterial activity Escherichia coli; type: functional, organism-based
[1] = Antioxidant activity assessed as DPPH radicle scavenging activity after 30 mins by spectrometric analysis; type: functional
Micrococcus luteus = test: Antibacterial activity Micrococcus luteus; type: functional, organism-based

IC50 [1]	SMILES	Activity (Escherichia coli)	Activity (Micrococcus luteus)
165 µM	COc1cc(O)c2c(c1O)C(=O)[C@@]13C[C@H]4[C@@H](C[C@H]1C(C)=O)OC(=O)[C@@]4(OC)C(O)=C3C2=O	inactive	inactive
28 µM	Cc1c(C)c2c(c(C)c1O)CC[C@@](C)(CCC[C@H](C)CCC[C@H](C)CCCC(C)C)O2 [ALPHA-TOCOPHEROL]		

Reference: ChEMBL document CHEMBL1926510, “Naphthoquinone-like polyketide isolated from Streptomyces sp. RI-77 and its predicted biosynthetic pathway” (J Nat Prod, 2011)
